# Laboratory results: patent US20210299064A1, “METHOD OF TREATING PATIENTS WITH LENNOX-GASTAUT SYNDROME” (ZOGENIX INTERNATIONAL LIMITED, priority 2020, published 2021)
# Structures can show the parent of a compound that is named as a salt. Where two headings read alike, the source gives them in different places.
# What was measured:
# [1] = test system: children and adults with Lennox-Gastaut syndrome (LGS); experiment: Randomized, double-blind, placebo-controlled trial of adjunctive fenfluramine oral solution: seizure frequency from caregiver diary; format: in vivo, human; conditions: for median reduction in monthly drop seizures: 2 week titration plus 12 week maintenance, placebo 7.8% (7.6% elsewhere in the source); for reduction from baseline of generalized tonic-clonic (GTC) seizures: placebo negative 3.7%, p less than 0.001; for reduction from baseline of tonic-atonic seizures: placebo 6.8%, p 0.0455; for proportion of subjects with a 25% or more reduction in monthly drop seizures: titration plus maintenance (week 0-14), placebo 31%, p 0.007
# Protocol: A randomized, double-blind, placebo-controlled trial was conducted to assess the effect of administering fenfluramine hydrochloride as an adjunctive therapy as an oral solution to children and adults with Lennox-Gastaut syndrome (LGS). The study assessed the effect of such administration on seizures experienced by the subjects.
# The fenfluramine hydrochloride was supplied as an oral solution in concentrations of 1.25, 2.5, and 5 mg/mL. Subjects were randomized to receive 1 of 2 doses of fenfluramine hydrochloride (0.2 mg/kg/day, 0.8 mg/kg/day; maximum dose: 30 mg/day) or placebo. Study medication were administered twice a day (BID) in equally divided doses. (Note that subjects taking concomitant stiripentol [STP] were randomized to 0.5 mg/kg/day, maximum dose 20 mg/day, or equivalent volume of placebo. Subjects randomized to 0.5 mg/kg/day were included in analyses with the subjects randomized to 0.8 mg/kg/day not taking STP.)
# Seizures that result in a drop are defined as seizures involving the entire body, trunk, or head that led to a fall, injury, slumping in a chair, or the subject's head hitting a surface or that could have led to a fall or injury, depending on the patient's position at the time of the seizure.
# The cohort included 263 randomized subjects from the United States, Canada, Europe, and Australia. 87 were randomized into 0.7 mg/kg/day of fenfluramine hydrochloride, 89 were randomized into 0.2 mg/kg/day of fenfluramine hydrochloride, and 87 were randomized into a placebo.
# The administration was conducted for 20 weeks. There was a 4-week baseline, a 2-week titration, a 12-week maintenance, and a 2-week taper or transition period.
# The 4-week Baseline Period consisted of the establishment of initial eligibility during a screening visit to include an assessment of cardiac parameters (ECG and ECHO), followed by an observation period where subjects were assessed for baseline seizure frequency based on recordings of daily seizure activity entered into a diary. Upon completion of the Baseline Period, subjects who qualified for the study were randomized (1:1:1) in a double-blind manner to receive 1 of 2 doses of fenfluramine hydrochloride (0.2 mg/kg/day, […]; maximum dose: 30 mg/day [or 0.5 mg/kg/day, maximum 20 mg/day, for subjects taking concomitant STP]) or placebo. Randomization was stratified by weight (<37.5 kilograms [kg], ≥37.5 kg) to ensure balance across treatment arms, and at least 25% of subjects will be in each weight group. All subjects were titrated to their blinded randomized dose over a 2-week Titration Period. Following titration, subjects continued treatment at their randomly assigned dose over a 12-week Maintenance Period. Total treatment time from the beginning of the Titration Period through the end of the Maintenance Period is 14 weeks. Subjects had ECG and ECHO assessments at weeks 6 and 14 during the Maintenance Period. At the end of the Maintenance Period (or early discontinuation), all subjects underwent a blinded 2-week taper or transition period (Post-Dosing Follow-Up) depending on whether they exit the study or are enrolled in Part 2, the long-term open-label extension, respectively.
# (§1) Change in seizure frequency was assessed as the drops between baseline and the combined Titration and Maintenance Periods (T+M). Also assessed was the proportion of subjects who achieve a ≥50% reduction from baseline in the frequency of seizures that result in drops. Also assessed was changes in the Clinical Global Impression—Improvement rating, as assessed by the Principal Investigator.
# Primary Efficacy Analysis: The primary efficacy endpoint for Part 1 is the percent change in frequency of seizures that result in drops (DSF: drop seizure frequency) per 28 days between the T+M and Baseline periods in Cohort A. The DSF will be calculated from all available data collected during the Baseline and treatment periods without imputation. […]
# [2] = test system: children and adults with Lennox-Gastaut syndrome (LGS); experiment: Same trial: Clinical Global Impression-Improvement (CGI-I) rating by the Principal Investigator; format: in vivo, human; conditions: 0.7 mg/kg/day; placebo 6.3%; p 0.0007
# Excerpt: The diagnosing can also involve a clinician's impression of symptoms. As used herein, the term “clinician” includes not only medical and psychological professions such as physicians, psychologists, psychiatrists, and nurses, but also non-professionals who observe the patient, such as a family member who resides with the patient. In some cases, the clinician is a medical or psychological professional. […] Instead, the “impression of symptoms” includes, for example, the clinician's subjective assessment of whether the overall condition of the patient has improved, worsened, or remained constant. In some cases the clinician's impression of symptoms is collected using a Clinical Global Impression (CGI) rating scale, which can include the section about severity of illness (CGI-S), global improvement (CGI-I), and efficacy index (CGI-E). […] By comparing the numerical responses over time, an assessment of the effect of the administering can be determined.
# as §1, with “Investigator. […]” for “Investigator.”
# [3] = test system: children and adults with Lennox-Gastaut syndrome (LGS); experiment: Same trial: safety (adverse events, ECG, ECHO); format: in vivo, human
# [4] = test system: self-induced photosensitive seizures; conditions: four cases; cited from earlier work
# [5] = test system: child suffering pattern sensitivity-induced seizures; conditions: one child, resistant to anticonvulsive treatment; cited from earlier work
# [6] = test system: children with refractory epilepsy; conditions: 0.5 to 1 mg/kg/day; cited from earlier work
# LGS patients = conditions: cited from earlier work; for reduction in seizures associated with drops: 20 mg/kg/day
# [7] = 0.7 mg/kg/day, listed as Fenfluramine
compound,measurement,setting,value
"CCNC(C)Cc1cccc(C(F)(F)F)c1 (racemic) [fenfluramine, (RS)—N-ethyl-1-[3-(trifluoromethyl)phenyl]propan-2-amine]",median reduction in monthly drop seizures,"[1]; 0.2 mg/kg/day, p 0.0915",14.2%
same,reduction from baseline of generalized tonic-clonic (GTC) seizures,[1]; 0.2 mg/kg/day,58.2%
same,reduction from baseline of generalized tonic-clonic (GTC) seizures,"[1]; 0.2 mg/kg/day, listed as Fenfluramine",58%
same,median reduction in monthly drop seizures,"[1]; 0.7 mg/kg/day, p 0.0012",26.5%
same,Hodges-Lehmann EMD (estimated median difference) from placebo in frequency of seizures associated with a drop,"[1]; 0.7 mg/kg/day, p 0.0013",19.9%
same,reduction from baseline of tonic-atonic seizures,[1]; 0.7 mg/kg/day,46.7%
same,reduction from baseline of tonic-atonic seizures,[1]; [7],47%
same,reduction from baseline of tonic seizures,"[1]; 0.7 mg/kg/day, placebo 13.3%, p 0.0601",31.3%
same,reduction from baseline of generalized tonic-clonic (GTC) seizures,[1]; 0.7 mg/kg/day,45.7%
same,reduction from baseline of generalized tonic-clonic (GTC) seizures,[1]; [7],46%
same,proportion of subjects with a 25% or more reduction in monthly drop seizures,[1]; 0.7 mg/kg/day,51.7%
same,"proportion of patients much or very much improved, CGI-I Investigator Rating",[2],26.3%
same,subjects with at least one serious treatment emergent adverse event (SAE),"[3]; 0.7 mg/kg/day, placebo 4.6%",11.7%
same,tolerability,"[3]; both doses, 14 weeks of treatment",generally well tolerated
same,cases of valvular heart disease or pulmonary arterial hypertension,"[3]; both doses, ECHO monitoring",No cases of valvular heart disease or pulmonary arterial hypertension were observed
same,response of self-induced photosensitive seizures,[4],responded to treatment
same,effect on self-induced pattern sensitivity-induced seizures,[5],successfully terminated these self-induced seizures
same,effect on number of seizures,[6],reduction in the number of seizures
C=C(C)[C@@H]1CCC(C)=C[C@H]1c1c(O)cc(CCCCC)cc1O [cannabidiol],reduction in seizures associated with drops,"LGS patients; Devinksy 2018, p 0.005",21.6%
same,reduction in seizures associated with drops,"LGS patients; Thiele 2018, p 0.0135",17.2%
O=C(c1cccnc1-c1ccncc1)N1CCC(O)(Cc2ccccc2)CC1 [Soticlestat],reduction in drop seizures,"LGS patients; Takeda Pharmaceuticals 2020, not statistically significant",14.8%
"CCNC(C)Cc1cccc(C(F)(F)F)c1 (stereo not shown) [fenfluramine HCl, fenfluramine hydrochloride]",median reduction in monthly drop seizures,"[1]; 0.2 mg/kg/day, p 0.0915",13.2%
same,median reduction in monthly drop seizures,"[1]; 0.7 mg/kg/day, p 0.0012",26.5%
same,proportion of subjects with a 25% or more reduction in monthly drop seizures,[1]; 0.7 mg/kg/day,51.7%
same,"proportion of patients much or very much improved, CGI-I Investigator Rating",[2],26.3%
